Molecular target: human STAT6 (Homo sapiens (Human), UniProt P42226)
Experiment: Surface plasmon resonance assay (Biacore 8K, binding to immobilized STAT6)
Settings: human STAT6 aa122-658, N-terminal His-tag, CM5 chip, 25° C.; geometric mean; read-out: STAT6 SPR Kd
Procedure: Biacore instruments from the 8K-series (Cytiva) were used, and measurements were performed at 25° C. Human STAT6 (truncated, aa122-658, with N-terminal His-tag, expressed in insect cells) was immobilized in the active flow cells on a CM5 chip using amine-coupling (default settings) at 10 μg/ml in 10 mM acetate buffer pH 5.5, at a contact time of 120-420 sec. and a flow rate of 10 μl/min. Reference flow cells were deactivated using blank immobilization. PBS-P+ (Cytiva) supplemented with 2% DMSO was used as running buffer, and solvent correction was applied. Compounds were tested by multi-cycle kinetics injections using a contact time of 60 sec., dissociation time of up to 300 sec., and a flow rate of 30 μl/min.
Solvent-corrected, reference-subtracted and blank-corrected data was processed and binding isotherms were fitted according to a single report point from each sensorgram (Standard: Late binding (5 sec. before injection end); alternative: Earlier report point according to binding profile). Data fitting was done both with unfixed Rmax and with Rmax fixed to the theoretical value* assuming 1:1 binding to allow processing of data from both weak and strong binders as well as to evaluate binding stoichiometry.
Positive controls were run at the beginning, during, and at the end of the screen to evaluate surface activity.

Sequence of human STAT6 (P42226 122-658): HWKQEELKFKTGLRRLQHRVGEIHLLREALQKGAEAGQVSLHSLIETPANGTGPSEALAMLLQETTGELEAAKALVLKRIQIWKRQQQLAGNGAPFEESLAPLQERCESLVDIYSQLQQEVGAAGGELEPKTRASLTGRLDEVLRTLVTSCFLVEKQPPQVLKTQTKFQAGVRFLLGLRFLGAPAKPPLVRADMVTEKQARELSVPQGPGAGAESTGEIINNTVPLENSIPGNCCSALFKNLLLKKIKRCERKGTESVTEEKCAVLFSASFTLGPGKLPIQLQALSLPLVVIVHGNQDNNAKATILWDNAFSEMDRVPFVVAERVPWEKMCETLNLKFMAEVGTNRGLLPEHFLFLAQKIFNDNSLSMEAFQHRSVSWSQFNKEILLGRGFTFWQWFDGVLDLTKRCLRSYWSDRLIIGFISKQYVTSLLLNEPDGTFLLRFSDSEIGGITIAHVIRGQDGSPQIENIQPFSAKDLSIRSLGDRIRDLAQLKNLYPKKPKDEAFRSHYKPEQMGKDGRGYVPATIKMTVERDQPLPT

Row | Kd | Molecule
1 | 0.0481 µM | CNc1ccc(-c2ccnc3c2cc(CN2CCC(c4ccc(C(=O)N(C)C)cc4C)CC2)n3C)cn1 [Example 1s9, N,N,3-Trimethyl-4-[1-[[1-methyl-4-[6-(methylamino)-3-pyridyl]pyrrolo[2,3-b]pyridin-2-yl]methyl]-4-piperidyl]benzamide]
2 | 0.0128 µM | CN(C)C(=O)c1ccc(C2CCN(Cc3cc4c(-c5ccc(N)c(C(=O)C(=O)O)c5)ccnc4n3C)CC2)cc1 [Example 1j13, 2-(2-Amino-5-(2-((4-(4-(dimethylcarbamoyl)phenyl)piperidin-1-yl)methyl)-1-methyl-1H-pyrrolo[2,3-b]pyridin-4-yl)phenyl)-2-oxoacetic acid]
3 | 0.0511 µM | CNc1ccc(-c2ccnc3c2cc(CN2CCC(c4ccc(C(=O)N(C)C)cc4)CC2=O)n3C)cn1 (stereo in doubt) [Example 1s4, N,N-dimethyl-4-[(4S)-1-[[1-methyl-4-[6-(methylamino)-3-pyridyl]pyrrolo[2,3-b]pyridin-2-yl]methyl]-2-oxo-4-piperidyl]benzamide]
4 | 0.0785 µM | Cc1cc(-c2ccnc3c2cc(CN2CCC(c4ccc(C(=O)N(C)C)cc4)CC2)n3C)c(C)nc1N [Example 1k31, 4-[1-[[4-(6-Amino-2,5-dimethyl-3-pyridyl)-1-methyl-pyrrolo[2,3-b]pyridin-2-yl]methyl]-4-piperidyl]-N,N-dimethyl-benzamide]
5 | 0.212 µM | CN(C)C(=O)c1ccc(C2CCN(Cc3cc4c(-c5ccc(N)nc5C(F)(F)F)ccnc4n3C)CC2)cc1 [Example 1k17, 4-[1-[[4-[6-Amino-2-(trifluoromethyl)-3-pyridyl]-1-methyl-pyrrolo[2,3-b]pyridin-2-yl]methyl]-4-piperidyl]-N,N-dimethyl-benzamide]
6 | 0.0464 µM | CN(C)C(=O)c1ccc(C2CCN(Cc3cc4c(-c5ccc(N)nc5)ccnc4n3C)C(=O)C2)cc1 (single isomer, unassigned) [Example 1ae5]
7 | 0.835 µM | 4-(1-((4-(6-Amino-5-methoxypyridin-3-yl)-1-methyl-1H-pyrrolo[2,3-b]pyridin-2-yl)methyl)piperidin-4-yl)-N,N-dimethylbenzamide [Example 1k7]
8 | 0.254 µM | Cc1cc(N)nc(C)c1-c1ccnc2c1cc(CN1CCC(c3ccc(C(=O)N(C)C)cc3)CC1)n2C [Example 1k65, 4-[1-[[4-(6-Amino-2,4-dimethyl-3-pyridyl)-1-methyl-pyrrolo[2,3-b]pyridin-2-yl]methyl]-4-piperidyl]-N,N-dimethyl-benzamide]
9 | 0.194 µM | CNC(=O)c1ccc(C2CCN(Cc3cc4c(-c5ccc(N)nc5C#N)ccnc4n3C)CC2)cc1 [Example 1ae14, 4-[1-[[4-(6-Amino-2-cyano-3-pyridyl)-1-methyl-pyrrolo[2,3-b]pyridin-2-yl]methyl]-4-piperidyl]-N-methyl-benzamide]
10 | 0.0186 µM | Cc1cc(C(=O)N(C)C)ccc1C1=CCN([C@H](C)c2cc3c(-c4ccc(N)cn4)ccnc3n2C)CC1 [Example 1af34, (R)-4-(1-(1-(4-(5-aminopyridin-2-yl)-1-methyl-1H-pyrrolo[2,3-b]pyridin-2-yl)ethyl)-1,2,3,6-tetrahydropyridin-4-yl)-N,N,3-trimethylbenzamide]
11 | 2.63 µM | COC(=O)c1cc(-c2ccnc3c2cc(CN2CCC(c4ccc(C(=O)N(C)C)cc4)CC2)n3C)cnc1N [Example 1k10, Methyl 2-amino-5-[2-[[4-[4-(dimethylcarbamoyl)phenyl]-1-piperidyl]methyl]-1-methyl-pyrrolo[2,3-b]pyridin-4-yl]pyridine-3-carboxylate]
12 | 0.11 µM | CC(=O)Nc1ccc(-c2ccnc3c2cc(CN2CC[C@H](c4ccc(C(=O)N(C)C)cc4)[C@H](F)C2)n3C)cc1 [Example 1r5, N,N-Dimethyl-4-[(3S,4R)-1-[[4-(4-acetamidophenyl)-1-methyl-pyrrolo[2,3-b]pyridin-2-yl]methyl]-3-fluoro-4-piperidyl]benzamide]
